Laboratory results taken from patent US20240376504A1, “ENZYMATIC SYNTHESIS OF MYCOSPORINE-LIKE AMINO ACIDS” (University of Florida Research Foundation, Incorporated, priority 2021, published 2024).

Tests used:
[1] = system: recombinant His6-tagged MysD; test: MysD reaction, relative activity of amino acid substrates (MG consumption by HPLC); assay type: biochemical, Nostoc linkia NIES-25; details: 0.25 μM MysD; L-Thr reaction (8 min) set as 100%; from concentrations of disubstituted MAAs produced
Description: The current and previous heterologous expression studies supported the function of MysD in the biosynthesis of disubstituted MAAs (FIG. 3).^29,35 To further characterize its catalytic properties, recombinant His6-tagged MysD of N. linkia NIES-25 was prepared from E. coli after a single affinity purification (FIG. 21). The enzyme reaction was performed with MysD (0.5 μM), MG (50 μM), and L-Thr (1 mM) in the presence of ATP (1 mM) and Mg^2+ (10 mM) at room temperature for 2 h. […] No product was formed in the control reactions without enzyme or ATP (FIG. 5A). The requirement of ATP for the MysD reaction supports its prediction as the D-Ala-D-Ala ligase-like enzyme of the ATP grasp superfamily.^29 The optimal temperature and pH of its reaction were determined at 37° C. and pH=8.5 (FIG. 22). Under these optimal reaction conditions, all 20 natural amino acids were screened (5 mM) along with MG (50 μM) in the MysD reaction. […] LC-HRMS and MS/MS analysis indicated the formation of their corresponding disubstituted MAAs, MG-Ala, MG-Arg (observed [M+H]^+: 402.1977; calculated [M+H]^+: 402.1983), MG-Cys (observed [M+H]^+: 349.1059; calculated [M+H]^+: 349.1064), mycosporine-2-Gly (observed [M+H]^+: 303.1182; calculated [M+H]^+: 303.1187), shinorine, and porphyra-334 (FIGS. 24, 25, and 26). L-Ser and L-Thr led to the complete consumption of MG in the MysD reactions after 3 h, followed by L-Cys. […] Nonetheless, the result of this biochemical study well agreed with the production of porphyra-334 along with small amounts of shinorine and MG-Ala in the above heterologous expression study (FIG. 3C). To further understand MysD's substrate preference, the enzyme concentration was lowered to 0.25 μM. […] The consumed MG level in this reaction was set as 100% to normalize its level in the five other reactions, which was determined from the concentrations of produced disubstituted MAAs in the reactions (FIG. 5C). […] Together, the results of these biochemical studies highlight the broad substrate scope of MysD and its strong preference toward L-Thr in the MAA biosynthesis.
MysD Reaction. […] The quality of MG was calculated based on its reported extinction coefficient (28,100 M^−1 cm^−1). […] The reactions were terminated and then analyzed in the HPLC and/or LC-MS analysis. […] First, the reactions were performed with 0.25 μM MysD for 8 min, which led to no more than 50% consumption of MG into porphyra-334 with the best substrate L-Thr and into shinorine with L-Ser. For the other four amino acids, the levels of their corresponding disubstituted MAAs were determined after the reaction time was elongated to 30 min. […]
HPLC and LC-MS Analysis. Samples were analyzed on a Shimadzu Prominence UHPLC system (Kyoto, Japan) coupled with a PDA detector. […]

[2] = reported value used to calculate MG; cited from earlier work

| Compound | consumption level of MG in the MysD reaction relative to that with L-Thr [1] | extinction coefficient [2] |
| --- | --- | --- |
| C[C@@H](O)[C@H](N)C(=O)O [L-Thr] | 100% |  |
| C[C@H](N)C(=O)O [L-Ala] | 0.4% |  |
| N[C@@H](CO)C(=O)O [L-Ser] | about 12.7% |  |
| COC1=C(NCC(=O)O)C[C@@](O)(CO)CC1=O [MG, mycosporine-glycine] |  | 28,100 M^−1 cm^−1 |
| N[C@@H](CS)C(=O)O [L-Cys] | 0.9% |  |
